Consider three molecules from ChEMBL document CHEMBL4257529, “Antifungal amphiphilic kanamycins: new life for an old drug” (Medchemcomm, 2018).

Values after ≈ are worked out from the molar mass of the structure shown.

One data set relates to Globisporangium ultimum. Kind of data set: Antifungal activity against Pythium ultimum by microbroth dilution assay. In kind it is functional.
The next data set concerns Pseudomonas aeruginosa. Kind of data set: Antibacterial activity against Pseudomonas aeruginosa ATCC 27853 by microbroth dilution assay. The format is functional. (In general: Broth dilution looks for growth in wells or tubes with falling amounts of substance.)
Data set [1] relates to Klebsiella pneumoniae. Kind of data set: Antibacterial activity against Klebsiella pneumoniae ATCC 700603 by microbroth dilution assay. The format is functional.
For a further data set, the system named is Phytophthora nicotianae. Kind of data set: Antifungal activity against Phytophthora parasitica by microbroth dilution assay. In kind it is functional.
For a further data set, the system named is Enterococcus faecalis. Kind of data set: Antibacterial activity against Enterococcus faecalis ATCC 29212 by microbroth dilution assay. In kind it is functional.
In the next data set the test system is Phoma. Kind of data set: Antifungal activity against Phoma spp. by microbroth dilution assay. The format is functional.
In the next data set the test system is Escherichia coli. Description: Antibacterial activity against Escherichia coli TG1 by microbroth dilution assay. The format is functional.
Data set [2] relates to Cladosporium cladosporioides. Description: Antifungal activity against Cladosporium cladosporioides by microbroth dilution assay. The format is functional.
The subject of a further data set is Rhodotorula mucilaginosa. Description: Antifungal activity against Rhodotorula pilimanae by microbroth dilution assay. In kind it is functional.
The next data set concerns Botrytis cinerea. Description: Antifungal activity against Bortrytis cinerea by microbroth dilution assay. In kind it is functional.
For data set [3], the system named is Klebsiella pneumoniae. Kind of data set: Antibacterial activity against Klebsiella pneumoniae […] by microbroth dilution assay. In kind it is functional.
A further data set relates to Saccharomyces cerevisiae. Kind of data set: Antifungal activity against Saccharomyces cerevisiae W303 by microbroth dilution assay. The format is functional.
Data set [4] can be described thus: Hemolytic activity in sheep RBC relative to control. The format is ADME, cell-based, Ovis aries, Erythrocyte. Particulars: sheep red blood cells (erythrocytes), read-out: Activity.
Data set [5] concerns Fusarium graminearum. Kind of data set: Antifungal activity against Fusarium graminearum by microbroth dilution assay. The format is functional.
The next data set deals with Fusarium oxysporum. Kind of data set: Antifungal activity against Fusarium oxysporum by microbroth dilution assay. In kind it is functional.
For a further data set, the system named is Staphylococcus aureus. Kind of data set: Antibacterial activity against Staphylococcus aureus ATCC 25923 by microbroth dilution assay. The format is functional.
The subject of the next data set is Rhizopus stolonifer. Description: Antifungal activity against Rhizopus stolonifer by microbroth dilution assay. In kind it is functional.
The test system of data set [6] is Globisporangium irregulare. Description: Antifungal activity against Pythium irregulare by microbroth dilution assay. The format is functional.
The subject of a further data set is Curvularia brachyspora. Kind of data set: Antifungal activity against Curvularia brachyspora by microbroth dilution assay. The format is functional.
The next data set concerns Candida albicans. Kind of data set: Antifungal activity against Candida albicans by microbroth dilution assay. In kind it is functional.
A further data set deals with Ulocladium. Description: Antifungal activity against Ulocladium spp. by microbroth dilution assay. In kind it is functional. The conditions noted are these: Alternaria sect. Ulocladium.
Data set [7] deals with Fusarium graminearum. Description: Antifungal activity against Fusarium graminearum infected in wheat plant assessed as fusarium head blight severity at 0.512 L/ha (reference value: 75%). In kind it is functional.
In data set [8] the test system is Fusarium graminearum. Kind of data set: Antifungal activity against Fusarium graminearum infected in wheat plant assessed as fusarium head blight incidence at 0.512 L/ha (reference value: 70%). The format is functional.
The subject of data set [9] is Fusarium graminearum. Description: Antifungal activity against Fusarium graminearum infected in wheat plant assessed as fusarium head blight index at 1.02 L/ha (reference value: 53%). In kind it is functional.
Data set [10] has as its system Fusarium graminearum. Kind of data set: Antifungal activity against Fusarium graminearum infected in wheat plant assessed as fusarium head blight severity at 1.02 L/ha (reference value: 75%). In kind it is functional.
The test system of data set [11] is Fusarium graminearum. Kind of data set: Antifungal activity against Fusarium graminearum infected in wheat plant assessed as fusarium head blight index at 0.512 L/ha (reference value: 53%). In kind it is functional.
Data set [12] relates to Fusarium graminearum. Kind of data set: Antifungal activity against Fusarium graminearum infected in wheat plant assessed as fusarium head blight incidence at 1.02 L/ha (reference value: 70%). The format is functional.
In data set [13] the test system is Fusarium graminearum. Description: Antifungal activity against Fusarium graminearum infected in wheat plant assessed as contamination of wheat heads and kernels with deoxynivalenol at 8 ml/L (reference value: 1.2 ppm). In kind it is functional.
Data set [14] has as its system Fusarium graminearum. Description: Antifungal activity against Fusarium graminearum infected in wheat plant assessed as contamination of wheat heads and kernels with deoxynivalenol at 4 ml/L (reference value: 1.2 ppm). In kind it is functional.

As to `CCCCCCCCO[C@H]1[C@H](O)[C@@H](O)[C@@H](O[C@@H]2[C@@H](O)[C@H](O[C@H]3O[C@H](CN)[C@@H](O)[C@H](O)[C@H]3N)[C@@H](N)C[C@H]2N)O[C@@H]1C`, the minimal inhibitory concentration (MIC) (commonly the lowest concentration found to suppress growth) against Globisporangium ultimum is 15.6 µg/mL (≈ 26.9 µM); in the data set on Pseudomonas aeruginosa, 250 µg/mL (≈ 431 µM); in the data set with Klebsiella pneumoniae [1] it was 250 µg/mL (≈ 431 µM); against Phytophthora nicotianae, 15.6 µg/mL (≈ 26.9 µM); with Enterococcus faecalis, 125 to 250 µg/mL (≈ 215 to 431 µM); in the data set with Phoma, 31.3 µg/mL (≈ 53.9 µM). For the same molecule, the MIC against Escherichia coli is 125 to 250 µg/mL (≈ 215 to 431 µM); in data set [2] it was 31.3 µg/mL (≈ 53.9 µM); in the data set with Rhodotorula mucilaginosa it was 7.8 µg/mL (≈ 13.4 µM); in the data set on Botrytis cinerea, 31.3 µg/mL (≈ 53.9 µM); against Klebsiella pneumoniae [3] it was 250 µg/mL (≈ 431 µM); in the data set with Saccharomyces cerevisiae it was 31.3 µg/mL (≈ 53.9 µM). Further, the MIC stood at 7.8 µg/mL (≈ 13.4 µM) against Fusarium graminearum [5]; 7.8 µg/mL (≈ 13.4 µM) against Fusarium oxysporum; 250 µg/mL (≈ 431 µM) in the data set on Staphylococcus aureus; 31.3 µg/mL (≈ 53.9 µM) in the data set on Rhizopus stolonifer; 15.6 µg/mL (≈ 26.9 µM) in data set [6]; 31.3 µg/mL (≈ 53.9 µM) in the data set with Curvularia brachyspora. Moreover, the MIC in the data set with Candida albicans came to 31.3 µg/mL (≈ 53.9 µM); with Ulocladium, 7.8 µg/mL (≈ 13.4 µM). Moreover, in data set [4], the hemolysis is below 20%.

Turning to `CC1(C)CCC(Cc2ccc(Cl)cc2)C1(O)Cn1cncn1` (centres undefined) [METCONAZOLE], the Activity is given as 69% in the data set with Fusarium graminearum [7], 13% with Fusarium graminearum [8], 58% in the data set on Fusarium graminearum [10] and 12% with Fusarium graminearum [12]. In addition, the Activity_index with Fusarium graminearum [9] is 7%; in the data set on Fusarium graminearum [11], 9%.

`COC(=O)N(OC)c1ccccc1COc1ccn(-c2ccc(Cl)cc2)n1` [PYRACLOSTROBIN]: the Activity was found to be 1.2 ppm in the data set with Fusarium graminearum [13] and 1.3 ppm with Fusarium graminearum [14].
